ChEMBL document CHEMBL1128875, “Synthesis and biological activity of Para-substituted 3-phenyl docetaxel analogs” (Bioorg Med Chem Lett, 1995)
≈ marks a conversion by molar mass, not a printed value.

How the values were obtained:
[1] = system: Mus musculus; assay: In vivo antitumor activity against B16 melanoma cells in mice; assay type: functional
[2] = system: P388; assay: In vitro cytotoxicity against murine P388 lymphocytic leukemia cells; assay type: functional, cell-based; conditions: Mus musculus
[3] = target: Tubulin alpha chain (Sus scrofa) (UniProt P02550); assay: Tested for 50% inhibition of the rate of microtubule disassembly to that paclitaxel; assay type: functional
Tubulin alpha chain (Sus scrofa), sequence (P02550 whole entry, looked up): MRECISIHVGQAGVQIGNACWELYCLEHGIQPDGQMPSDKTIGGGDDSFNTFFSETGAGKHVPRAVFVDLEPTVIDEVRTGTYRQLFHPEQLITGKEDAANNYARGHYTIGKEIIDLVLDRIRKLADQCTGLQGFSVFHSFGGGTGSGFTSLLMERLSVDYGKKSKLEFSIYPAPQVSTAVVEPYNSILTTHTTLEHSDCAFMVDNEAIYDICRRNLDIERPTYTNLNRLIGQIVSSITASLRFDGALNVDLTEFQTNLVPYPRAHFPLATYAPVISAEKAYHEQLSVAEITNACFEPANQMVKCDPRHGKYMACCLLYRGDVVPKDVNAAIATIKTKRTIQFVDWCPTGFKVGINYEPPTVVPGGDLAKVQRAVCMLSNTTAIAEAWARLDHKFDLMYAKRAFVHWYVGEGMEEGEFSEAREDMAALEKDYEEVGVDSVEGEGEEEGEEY

[4] = species on record: Mus musculus; assay: Ratio of median tumor weight of the treated mice /control mice; assay type: functional
[5] = species on record: Mus musculus; assay: Ratio of median tumor weight of the treated mice /control mice; non evaluable: delayed toxicity; assay type: organism-based; conditions: in vivo
[6] = species on record: Mus musculus; assay: Ratio of median tumor weight of the treated mice /control mice; non evaluable: immediate death after injection (insoluble compound); assay type: ADME, organism-based; conditions: in vivo

CC(=O)O[C@@]12CO[C@@H]1C[C@H](O)[C@@]1(C)C(=O)[C@H](O)C3=C(C)[C@@H](OC(=O)[C@H](O)[C@@H](NC(=O)OC(C)(C)C)c4ccccc4)C[C@@](O)([C@@H](OC(=O)c4ccccc4)[C@H]21)C3(C)C.O.O.O [DOCETAXEL]
Max tolerated dose [1]: 13.4 mg/kg/day
IC50 [2]: 0.04 µg/mL
IC50 ratio [3]: 0.64
T/C [4]: 0%

C=Cc1ccc([C@H](NC(=O)OC(C)(C)C)[C@@H](O)C(=O)O[C@H]2C[C@@]3(O)[C@@H](OC(=O)c4ccccc4)[C@@H]4[C@]5(OC(C)=O)CO[C@@H]5C[C@H](O)[C@@]4(C)C(=O)[C@H](O)C(=C2C)C3(C)C)cc1
Max tolerated dose [1]: 38.3 mg/kg/day
IC50 [2]: 0.06 µg/mL (≈ 0.0719 µM)
IC50 ratio [3]: 0.7
T/C [4]: 19%

CC(=O)O[C@@]12CO[C@@H]1C[C@H](O)[C@@]1(C)C(=O)[C@H](O)C3=C(C)[C@@H](OC(=O)[C@H](O)[C@@H](NC(=O)OC(C)(C)C)c4ccc(C(C)=O)cc4)C[C@@](O)([C@@H](OC(=O)c4ccccc4)[C@H]21)C3(C)C
Max tolerated dose [1]: 35.3 mg/kg/day
IC50 [2]: 0.19 µg/mL (≈ 0.224 µM)
IC50 ratio [3]: 0.95
T/C [4]: 10%

CC(=O)O[C@@]12CO[C@@H]1C[C@H](O)[C@@]1(C)C(=O)[C@H](O)C3=C(C)[C@@H](OC(=O)[C@H](O)[C@@H](NC(=O)OC(C)(C)C)c4ccc(CO)cc4)C[C@@](O)([C@@H](OC(=O)c4ccccc4)[C@H]21)C3(C)C
Max tolerated dose [1]: <4.8 mg/kg/day
T/C [5]: non evaluable: delayed toxicity
IC50 [2]: 0.06 µg/mL (≈ 0.0716 µM)
IC50 ratio [3]: 0.4

CC(=O)O[C@@]12CO[C@@H]1C[C@H](O)[C@@]1(C)C(=O)[C@H](O)C3=C(C)[C@@H](OC(=O)[C@H](O)[C@@H](NC(=O)OC(C)(C)C)c4ccc(C(=O)c5ccccc5)cc4)C[C@@](O)([C@@H](OC(=O)c4ccccc4)[C@H]21)C3(C)C
Max tolerated dose [1]: 20 mg/kg/day
IC50 [2]: > 1 µg/mL
IC50 ratio [3]: 20
T/C [4]: 95%

C#Cc1ccc([C@H](NC(=O)OC(C)(C)C)[C@@H](O)C(=O)O[C@H]2C[C@@]3(O)[C@@H](OC(=O)c4ccccc4)[C@@H]4[C@]5(OC(C)=O)CO[C@@H]5C[C@H](O)[C@@]4(C)C(=O)[C@H](O)C(=C2C)C3(C)C)cc1
Max tolerated dose [1]: 21.7 mg/kg/day
IC50 [2]: 0.085 µg/mL (≈ 0.102 µM)
IC50 ratio [3]: 0.6
T/C [4]: 15%

CC(=O)O[C@@]12CO[C@@H]1C[C@H](O)[C@@]1(C)C(=O)[C@H](O)C3=C(C)[C@@H](OC(=O)[C@H](O)[C@@H](NC(=O)OC(C)(C)C)c4ccc(-c5ccccc5)cc4)C[C@@](O)([C@@H](OC(=O)c4ccccc4)[C@H]21)C3(C)C
Max tolerated dose [1]: 35 mg/kg/day
IC50 [2]: 0.65 µg/mL (≈ 0.735 µM)
IC50 ratio [3]: 2
T/C [4]: 40%

CC(=O)O[C@@]12CO[C@@H]1C[C@H](O)[C@@]1(C)C(=O)[C@H](O)C3=C(C)[C@@H](OC(=O)[C@H](O)[C@@H](NC(=O)OC(C)(C)C)c4ccc(C)cc4)C[C@@](O)([C@@H](OC(=O)c4ccccc4)[C@H]21)C3(C)C
Max tolerated dose [1]: 15.5 mg/kg/day
IC50 [2]: 0.04 µg/mL (≈ 0.0487 µM)
IC50 ratio [3]: 1.3
T/C [4]: 8%

C=C(C)c1ccc([C@H](NC(=O)OC(C)(C)C)[C@@H](O)C(=O)O[C@H]2C[C@@]3(O)[C@@H](OC(=O)c4ccccc4)[C@@H]4[C@]5(OC(C)=O)CO[C@@H]5C[C@H](O)[C@@]4(C)C(=O)[C@H](O)C(=C2C)C3(C)C)cc1
Max tolerated dose [1]: 20 mg/kg/day
IC50 [2]: 0.35 µg/mL (≈ 0.413 µM)
IC50 ratio [3]: 1.8
T/C [4]: 105%

CC(=O)O[C@@]12CO[C@@H]1C[C@H](O)[C@@]1(C)C(=O)[C@H](O)C3=C(C)[C@@H](OC(=O)[C@H](O)[C@@H](NC(=O)OC(C)(C)C)c4ccc(C=O)cc4)C[C@@](O)([C@@H](OC(=O)c4ccccc4)[C@H]21)C3(C)C
T/C [6]: non evaluable: immediate death after injection (insoluble compound)
Max tolerated dose [1]: <13.4 mg/kg/day
IC50 [2]: 0.13 µg/mL (≈ 0.156 µM)
IC50 ratio [3]: 0.75
